Test results taken from ChEMBL document CHEMBL1862790, “Optimisation of fenarimol series for the treatment of Chagas disease”.
Values joined by “and” are separate entries in the source; they are usually repeats but may differ in a detail not shown here. Equal entries are not always repeated.

Key:
Trypanosoma cruzi [1] = test: microbe, parasite or virus in culture; assay type: functional, organism-based, Tulahuen LacZ, Clone C4
L6 = test: (§1) DNDI: Cytotoxicity against L-6 rat myoblasts from skeletal muscle cells; details: L6 rat skeletal muscle myoblast cells
[2] = as §1; details: L6 rat skeletal muscle myoblast cells, IC50
Trypanosoma cruzi [3] = test: microbe, parasite or virus in culture; assay type: functional, Tulahuen LacZ, Clone C4
[4] = Trypanosoma cruzi, Tulahuen LacZ, Clone C4

| Compound | IC50 (Trypanosoma cruzi [1]) | IC50 (Trypanosoma cruzi [1]; [4]) [nM] | IC90 (Trypanosoma cruzi [3]) [nM] | IC90 (Trypanosoma cruzi [3]; [4]) [nM] | IC50 (L6) [nM] | IC50 [2] [nM] |
| --- | --- | --- | --- | --- | --- | --- |
| N#Cc1ccc(C(O)(c2ccc(C(F)(F)F)cc2)c2cccnc2)c(F)c1 (configuration not stated) | 5.5 nM and 1.9 nM |  | 9.52 | 12.5 | 56100 | 77200 |
| OC(c1ccc(Cl)cc1)(c1cccnc1)c1cccs1 (configuration not stated) | 17 nM | 13 | 99 | 108 | 67700 | > 100000 |
| Cc1ccc(C(O)(c2ccc(Cl)cc2)c2cncnc2)cc1 (configuration not stated) | 68 nM and 23.8 nM |  | 310 | 158 | 67400 | 79300 |

The next lines start with results.

| IC50 (Trypanosoma cruzi [1]) | IC50 (Trypanosoma cruzi [1]; [4]) [nM] | IC90 (Trypanosoma cruzi [3]) [nM] | IC90 (Trypanosoma cruzi [3]; [4]) [nM] | Compound | IC50 (L6) [nM] | IC50 [2] [nM] |
| --- | --- | --- | --- | --- | --- | --- |
| 6.6 nM | 7 | 16 | 17.5 | FC(F)(F)c1ccc(N2CCC(NC(c3ccc(Cl)cc3)c3cccnc3)CC2)cn1 (configuration not stated) | 54400 | 39600 |
| 2.6 nM and 6 nM |  | 8 | 7.5 | CS(=O)(=O)c1ccc(N2CCC(NC(c3cccnc3)c3ccc(Cl)cc3F)CC2)cc1 (configuration not stated) | 26600 | 49700 |
